Data published in paper PMC5267515, “In Vitro and Clinical Evaluations of the Drug-Drug Interaction Potential of a Metabotropic Glutamate 2/3 Receptor Agonist Prodrug with Intestinal Peptide Transporter 1” (Drug Metabolism and Disposition, 2017).
Entries after “also recorded” stand apart in the source; their conditions may differ. Where two headings read alike, the source gives them in different places. Values belong to the compound of their own block, whether it stands above or below them.

Experiments:
clinical = conditions: human, in vivo
[1] = human, in vivo
PEPT1 [2] = target: PEPT1; parameters: method as in Ganapathy et al. (1998); conditions: ref Ganapathy et al. (1998); read-out: Ki value (printed in column IC50 against Gly-Sar); cited from earlier work
[3] = Clinical study safety (adverse events) in healthy subjects; assay type: in vivo, human
[4] = Clinical drug interaction study (H8Y-MC-HBCF), plasma and urine pharmacokinetics in healthy subjects; conditions: for Tmax: median (min–max)
PEPT1 [5] = target: T1, PEPT1 (Homo sapiens, UniProt P46059); assay: Inhibition of PEPT1-mediated [14C]LY2140023 uptake in transfected HeLa cells; conditions: 10 μM [14C]LY2140023
T1 sequence (P46059 1-708): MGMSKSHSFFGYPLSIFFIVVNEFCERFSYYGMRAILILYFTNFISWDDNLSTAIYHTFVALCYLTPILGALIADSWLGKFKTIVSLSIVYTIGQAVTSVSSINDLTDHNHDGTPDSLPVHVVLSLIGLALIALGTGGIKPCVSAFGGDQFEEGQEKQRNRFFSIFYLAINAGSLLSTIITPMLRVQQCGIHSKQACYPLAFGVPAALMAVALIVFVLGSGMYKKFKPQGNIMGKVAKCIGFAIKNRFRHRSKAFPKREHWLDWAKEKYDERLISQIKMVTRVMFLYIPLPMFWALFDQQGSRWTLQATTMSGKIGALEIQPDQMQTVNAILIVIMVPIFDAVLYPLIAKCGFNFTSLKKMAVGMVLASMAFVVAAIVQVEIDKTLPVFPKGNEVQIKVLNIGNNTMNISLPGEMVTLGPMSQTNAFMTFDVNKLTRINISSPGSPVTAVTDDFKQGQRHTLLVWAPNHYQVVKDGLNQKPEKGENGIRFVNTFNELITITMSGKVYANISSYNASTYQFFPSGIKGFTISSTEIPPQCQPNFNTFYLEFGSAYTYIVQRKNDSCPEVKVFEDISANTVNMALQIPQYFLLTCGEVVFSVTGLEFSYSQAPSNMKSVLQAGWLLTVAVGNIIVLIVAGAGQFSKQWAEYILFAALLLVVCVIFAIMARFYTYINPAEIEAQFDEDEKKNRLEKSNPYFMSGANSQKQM

PEPT1 [6] = target: T1, PEPT1; assay: Proton- and time-dependent transport of prodrug and active moiety in PEPT1 transfected HeLa cells; assay type: in vitro ADME; parameters: expressed in transfected cells; host or cells: HeLa cells (ATCC), transiently transfected with Fugene 6, pcDNA3.1 vector; conditions: 30 μM, pH 6.0 or 7.5, PEPT1 vs empty vector transfected HeLa cells
Protocol: The PEPT1 mediated [^14C]LY2140023 (30 μM) and [^14C]LY404039 (30 μM) uptake was measured in cells 24 hours post transfection. The time-dependent transport of LY2140023 and LY404039 was conducted using buffers prepared at either pH 6.0 or 7.5 as described above. The cells transfected with empty pcDNA3.1 vector were used to measure the passive diffusion of LY2140023 and LY404039. The cells were incubated for 1, 2.5, 5, 7.5, 10, and 15 minutes at room temperature and were washed, lysed, and contents quantified as described above.

Pept1 knockout mice = test system: Pept1 knockout mice; parameters: method as in data on file, Eli Lilly and Company; conditions: ref data on file, Eli Lilly and Company; cited from earlier work
PEPT1 [7] = target: T1, PEPT1; assay: Potential for clinical DDI: estimated GI concentration (I2) versus in vitro IC50; parameters: expressed in transfected cells; host or cells: HeLa cells (ATCC), transiently transfected with Fugene 6, pcDNA3.1 vector; conditions: dose divided by 250 ml (glass of water)
Protocol: These concentrations (I2) were obtained by dividing the recommended clinical dose by a volume of 250 ml (volume of glass of water) (Table 3).
Subsequently, to normalize the inhibitory potential to the clinical dose, the in vitro IC50 values were […] (the volume of a glass of water).

PEPT1 [8] = target: T1, PEPT1; assay: Inhibition of PEPT1-mediated [14C]Gly-Sar uptake in transfected HeLa cells; assay type: in vitro ADME; parameters: expressed in transfected cells; host or cells: HeLa cells (ATCC), transiently transfected with Fugene 6, pcDNA3.1 vector; conditions: 25 μM [14C]Gly-Sar; LY2140023 5 to 1000 μM; 3 minutes; read-out: IC50 against Gly-Sar, mean of two separate experiments
Protocol: An inhibition assay was conducted using 25 μM [^14C]Gly-Sar (0.278 μCi/ml) as a probe substrate to assess if the uptake of [^14C]Gly-Sar was inhibited by prodrug (5 to 1000 μM). The cells were incubated for 3 minutes in uptake buffer containing 25 μM [^14C]Gly-Sar and different concentrations of LY2140023 at room temperature. The uptake was corrected for background determined by parallel experiment in cells transfected with pcDNA3.1 empty vector. Cell lysing and protein quantification were performed as described above.

MDCK-MDR1 cells = test system: MDCK-MDR1 cells; parameters: method as in data on file, Eli Lilly and Company; conditions: ref data on file, Eli Lilly and Company; cited from earlier work
[9] = LY2140023 80 mg + valacyclovir 1000 mg coadministered, geometric mean (CV%)
[10] = human, plasma, oral, Cmax LS Geometric Mean, LY2140023 + Valacyclovir (Test)
[11] = human, plasma, oral, Cmax, LY2140023 80 mg + valacyclovir 1000 mg coadministered, geometric mean (CV%)
[12] = human, plasma, oral, LY2140023 80 mg + valacyclovir 1000 mg coadministered

AUC(0-inf) (clinical; AUC(0-∞)): 17500 ng·h/mL | AUC(0-inf) (clinical; AUC(0-∞) LS Geometric Mean): 17500 ng·h/mL | Cmax (clinical; Cmax): 4400 ng/mL | Cmax (clinical; Cmax LS Geometric Mean): 4400 ng/mL | Tmax (clinical; tmax): 2.5 h | fe [1]: 0.460 (32.0)
Structure (SMILES): Nc1nc2c(ncn2COCCO)c(=O)[nH]1 [Acyclovir]

fe (fraction of the dose excreted in urine) [4, 9]: 0.00776 (25.4) | AUC(0-t) ([4]; human, plasma, oral, 1000 mg, AUC(0-3) LS Geometric Mean, Valacyclovir Alone (Reference)): 309 ng·h/mL | AUC(0-t) ([4]; human, plasma, oral, 1000 mg, AUC(0-3), single 1000-mg dose of valacyclovir alone, geometric mean (CV%), n = 22): 311 ng·h/mL | Cmax ([4]; human, plasma, oral, 1000 mg, Cmax LS Geometric Mean, Valacyclovir Alone (Reference)): 245 ng/mL | Cmax ([4]; human, plasma, oral, 1000 mg, Cmax, single 1000-mg dose of valacyclovir alone, geometric mean (CV%)): 245 ng/mL | Tmax ([4]; human, plasma, oral, 1000 mg, single 1000-mg dose of valacyclovir alone): 2 h | AUC(0-t) ([4]; human, plasma, oral, AUC(0-3) LS Geometric Mean, Valacyclovir + LY2140023 (Test)): 278 ng·h/mL | AUC(0-t) ([4]; human, plasma, oral, AUC(0-3), LY2140023 80 mg + valacyclovir 1000 mg coadministered, geometric mean (CV%)): 270 ng·h/mL | Cmax [4, 10]: 258 ng/mL | Cmax [4, 11]: 255 ng/mL | Tmax [4, 12]: 2 h | CL renal ([4]; human, urine and plasma, oral, 1000 mg): 262 mL/min | fe ([4]; single 1000-mg dose of valacyclovir alone, geometric mean (CV%)): 0.00703 (64.7) | IC50 (PEPT1 [5]; IC50 against LY2140023, first of two separate experiments): 410 ± 50 µM | IC50 (PEPT1 [5]; IC50 against LY2140023, second of two separate experiments): 500 ± 110 µM | IC50 (PEPT1 [5]; Mean IC50 against LY2140023, mean of two separate experiments): 460 µM
Structure (SMILES): CC(C)[C@H](N)C(=O)OCCOCn1cnc2c(=O)[nH]c(N)nc21 [Valacyclovir]
Ki (PEPT1 [2]): 740 µM | adverse events ([3]; after 1000 mg of valacyclovir alone): mild AE of urticaria; also recorded: one severe AE of headache

PEPT1 substrate status (PEPT1 [6]; listed as LY2140023 monohydrate): is a substrate of PEPT1 | CL/F [4, 9]: 65.9 (31) L/hour | half-life ([4]; human, plasma, oral, 80 mg): 1.92 h | AUC(0-inf) ([4]; human, plasma, oral, 80 mg, AUC(0-∞) LS Geometric Mean, LY2140023 Alone (Reference)): 1350 ng·h/mL | AUC(0-inf) ([4]; human, plasma, oral, 80 mg, AUC(0-∞), single 80-mg dose of LY2140023 alone, geometric mean (CV%)): 1330 ng·h/mL | Cmax ([4]; human, plasma, oral, 80 mg, Cmax LS Geometric Mean, LY2140023 Alone (Reference)): 310 ng/mL | Cmax ([4]; human, plasma, oral, 80 mg, Cmax, single 80-mg dose of LY2140023 alone, geometric mean (CV%)): 307 ng/mL | Tmax ([4]; human, plasma, oral, 80 mg, single 80-mg dose of LY2140023 alone): 3 h | AUC(0-inf) ([4]; human, plasma, oral, AUC(0-∞) LS Geometric Mean, LY2140023 + Valacyclovir (Test)): 1220 ng·h/mL | AUC(0-inf) ([4]; human, plasma, oral, AUC(0-∞), LY2140023 80 mg + valacyclovir 1000 mg coadministered, geometric mean (CV%)): 1210 ng·h/mL | Cmax [4, 10]: 275 ng/mL | Cmax [4, 11]: 272 ng/mL | Tmax [4, 12]: 3 h | CL/F ([4]; single 80-mg dose of LY2140023 alone, geometric mean (CV%)): 60.2 (27) L/hour | Estimated Intestinal Concentration (PEPT1 [7]): 0.873 mM | IC50 (PEPT1 [8]): 18 µM | Vd/F (clinical; Vz/F): 166 L
Structure (SMILES): CSCC[C@H](N)C(=O)N[C@@]1(C(=O)O)CS(=O)(=O)[C@H]2[C@H](C(=O)O)[C@H]21 [LY2140023, Pomaglumetad methionil]
PEPT1 substrate status (PEPT1 [6]): a PEPT1 substrate; also recorded: PEPT1-mediated, proton-dependent process | AUC0–∞ in Pept1 knockout mice relative to wildtype mice (Pept1 knockout mice): 10% | Cmax in Pept1 knockout mice relative to wildtype mice (Pept1 knockout mice): 10% | most common AEs ([3]; after prodrug alone (80 mg)): nausea, dizziness, somnolence, and headache | passive permeability (MDCK-MDR1 cells): approximately 1 × 10^−6 cm/s
